Our source for the EC50 values is patent US9499550B2 (BRISTOL-MYERS SQUIBB COMPANY, priority 2012, dated 2016).

One may read the EC50 as the concentration at which the effect is half-maximal.

Assay [1] relates to HCV genotype 1a (H77 strain) replicon in HUH-7 cells. Nature of the assay: HCV replicon luciferase reporter assay, genotype 1a. Type of assay: cell-based. Particulars: Hepatitis C virus, Huh-7, 72 h, HCV genotype 1a replicon luciferase assay, 3 days incubation. In a few lines:
(§1)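 Replicon inhibition for both genotypes was measured as Renilla luciferase signal (EnduRen, 7.5 μM final, 2 h) after 3-day, 37° C exposure of replicon-bearing HUH-7 cells in 4% FCS DMEM, 0.5% DMSO. The 1b construct carries S1179I; the 1a H77 construct carries P1496L and S2204I. Twenty-point, 3-fold dilutions were fitted four-parametrically for EC50, and CC50 was taken from multiplexed Cell Titer-Blue.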
In general terms: In antiviral work, replicon cells carry a viral genome segment that copies itself.

Assay [2] has as its system HCV genotype 1b (Con1) replicon in HUH-7 cells. Nature of the assay: HCV replicon luciferase reporter assay, genotype 1b. Type of assay: cell-based. As to conditions: Hepatitis C virus, Huh-7, 72 h, HCV genotype 1b replicon luciferase assay, 3 days incubation. The procedure, abridged: as §1
Setting [3] is: range class, read-out: LE_1a (EC50, range).
Setting [4] is: range class, read-out: LE_1b (EC50, range).

Read-outs that look alike come from different tables or passages of the source.

On to `COCCn1nc(O[C@@H]2C[C@H]3C(=O)N[C@]4(C(=O)NS(=O)(=O)C5(C)CC5)C[C@H]4/C=C\CC[C@@H](C)C[C@@H](C)[C@H](NC(=O)OC(C)(C)C)C(=O)N3C2)c2ccccc2c1=O` [Compound 1006, tert-butyl ((2R,6S,7R,9R,13aS,14aR,16aS,Z)-2-((3-(2-methoxyethyl)-4-oxo-3,4-dihydrophthalazin-1-yl)oxy)-7,9-dimethyl-14a-(((1-methylcyclopropyl)sulfonyl)carbamoyl)-5,16-dioxo-1,2,3,5,6,7,8,9,10,11,13a,14,14a,15,16,16a-hexadecahydrocyclopropa[e]pyrrolo[1,2-a][1,4]diazacyclopentadecin-6-yl)carbamate], for which the EC50 in assay [1] (setting [3]) and in assay [2] (setting [4]) was 4.82 to 103 nM throughout.

With `COCCn1nc(O[C@@H]2C[C@H]3C(=O)N[C@]4(C(=O)NS(=O)(=O)C5CC5)C[C@H]4/C=C\CC[C@H](C)C[C@@H](C)[C@H](NC(=O)OC(C)(C)C)C(=O)N3C2)c2ccccc2c1=O` [Compound 1007, tert-butyl ((2R,6S,7R,9S,13aS,14aR,16aS,Z)-14a-((cyclopropylsulfonyl)carbamoyl)-2-((3-(2-methoxyethyl)-4-oxo-3,4-dihydrophthalazin-1-yl)oxy)-7,9-dimethyl-5,16-dioxo-1,2,3,5,6,7,8,9,10,11,13a,14,14a,15,16,16a-hexadecahydrocyclopropa[e]pyrrolo[1,2-a][1,4]diazacyclopentadecin-6-yl)carbamate], the concentration for a half-maximal effect (EC50) in assay [1] (setting [3]) was above 87.4 nM; in assay [1] (read-out: LE_1a (EC50)) it was at least 1000 nM; in assay [2] (setting [4]), above 87.4 nM; in assay [2] (read-out: LE_1b (EC50)) it was 438 nM.

As to `COCCn1nc(O[C@@H]2C[C@H]3C(=O)N[C@]4(C(=O)NS(=O)(=O)C5CC5)C[C@H]4/C=C\CC[C@@H](C)C[C@@H](C)[C@H](NC(=O)OC(C)(C)C)C(=O)N3C2)c2ccccc2c1=O` [Compound 1008, tert-butyl ((2R,6S,7R,9R,13aS,14aR,16aS,Z)-14a-((cyclopropylsulfonyl)carbamoyl)-2-((3-(2-methoxyethyl)-4-oxo-3,4-dihydrophthalazin-1-yl)oxy)-7,9-dimethyl-5,16-dioxo-1,2,3,5,6,7,8,9,10,11,13a,14,14a,15,16,16a-hexadecahydrocyclopropa[e]pyrrolo[1,2-a][1,4]diazacyclopentadecin-6-yl)carbamate], the EC50 in assay [1] (setting [3]) and in assay [2] (setting [4]) was 4.82 to 103 nM each time.

Regarding `CC(C)n1nc(O[C@@H]2C[C@H]3C(=O)N[C@]4(C(=O)NS(=O)(=O)C5CC5)C[C@H]4/C=C\CC[C@H](C)C[C@@H](C)[C@H](NC(=O)OC(C)(C)C(F)(F)F)C(=O)N3C2)c2ccccc2c1=O` [Compound 1009, 1,1,1-trifluoro-2-methylpropan-2-yl((2R,6S,7R,9S,13aS,14aR,16aS,Z)-14a-((cyclopropylsulfonyl)carbamoyl)-2-((3-isopropyl-4-oxo-3,4-dihydrophthalazin-1-yl)oxy)-7,9-dimethyl-5,16-dioxo-1,2,3,5,6,7,8,9,10,11,13a,14,14a,15,16,16a-hexadecahydrocyclopropa[e]pyrrolo[1,2-a][1,4]diazacyclopentadecin-6-yl)carbamate], the EC50 in assay [1] (setting [3]) and in assay [2] (setting [4]) was above 87.4 nM in each case.

Regarding `CC(C)n1nc(O[C@@H]2C[C@H]3C(=O)N[C@]4(C(=O)NS(=O)(=O)C5CC5)C[C@H]4/C=C\CC[C@@H](C)C[C@@H](C)[C@H](NC(=O)OC(C)(C)C(F)(F)F)C(=O)N3C2)c2ccccc2c1=O` [Compound 1010, 1,1,1-trifluoro-2-methylpropan-2-yl((2R,6S,7R,9R,13aS,14aR,16aS,Z)-14a-((cyclopropylsulfonyl)carbamoyl)-2-((3-isopropyl-4-oxo-3,4-dihydrophthalazin-1-yl)oxy)-7,9-dimethyl-5,16-dioxo-1,2,3,5,6,7,8,9,10,11,13a,14,14a,15,16,16a-hexadecahydrocyclopropa[e]pyrrolo[1,2-a][1,4]diazacyclopentadecin-6-yl)carbamate], the EC50 in assay [1] (setting [3]) and in assay [2] (setting [4]) was 4.82 to 103 nM in each case.

In the case of `CC(C)n1nc(O[C@@H]2C[C@H]3C(=O)N[C@]4(C(=O)NS(=O)(=O)C5(C)CC5)C[C@H]4/C=C\CC[C@H](C)C[C@@H](C)[C@H](NC(=O)OC(C)(C)C(F)(F)F)C(=O)N3C2)c2ccccc2c1=O` [Compound 1011, 1,1,1-trifluoro-2-methylpropan-2-yl((2R,6S,7R,9S,13aS,14aR,16aS,Z)-2-((3-isopropyl-4-oxo-3,4-dihydrophthalazin-1-yl)oxy)-7,9-dimethyl-14a-(((1-methylcyclopropyl)sulfonyl)carbamoyl)-5,16-dioxo-1,2,3,5,6,7,8,9,10,11,13a,14,14a,15,16,16a-hexadecahydrocyclopropa[e]pyrrolo[1,2-a][1,4]diazacyclopentadecin-6-yl)carbamate], the EC50 in assay [1] (setting [3]) was above 87.4 nM; in assay [1] (read-out: LE_1a (EC50)), at least 1000 nM; in assay [2] (setting [4]), above 87.4 nM; in assay [2] (read-out: LE_1b (EC50)) it was 362 nM.

For `CC(C)n1nc(O[C@@H]2C[C@H]3C(=O)N[C@]4(C(=O)NS(=O)(=O)C5(C)CC5)C[C@H]4/C=C\CC[C@@H](C)C[C@@H](C)[C@H](NC(=O)OC(C)(C)C(F)(F)F)C(=O)N3C2)c2ccccc2c1=O` [Compound 1012, 1,1,1-trifluoro-2-methylpropan-2-yl((2R,6S,7R,9R,13aS,14aR,16aS,Z)-2-((3-isopropyl-4-oxo-3,4-dihydrophthalazin-1-yl)oxy)-7,9-dimethyl-14a-(((1-methylcyclopropyl)sulfonyl)carbamoyl)-5,16-dioxo-1,2,3,5,6,7,8,9,10,11,13a,14,14a,15,16,16a-hexadecahydrocyclopropa[e]pyrrolo[1,2-a][1,4]diazacyclopentadecin-6-yl)carbamate], the EC50 in assay [1] (setting [3]) and in assay [2] (setting [4]) was 4.82 to 103 nM throughout.

For `COCCn1nc(O[C@@H]2C[C@H]3C(=O)N[C@]4(C(=O)NS(=O)(=O)C5(C)CC5)C[C@H]4/C=C\CC[C@@H](C)C[C@@H](C)[C@H](NC(=O)OC(C)(C)C(F)(F)F)C(=O)N3C2)c2ccccc2c1=O` [Compound 1014, 1,1,1-trifluoro-2-methylpropan-2-yl((2R,6S,7R,9R,13aS,14aR,16aS,Z)-2-((3-(2-methoxyethyl)-4-oxo-3,4-dihydrophthalazin-1-yl)oxy)-7,9-dimethyl-14a-(((1-methylcyclopropyl)sulfonyl)carbamoyl)-5,16-dioxo-1,2,3,5,6,7,8,9,10,11,13a,14,14a,15,16,16a-hexadecahydrocyclopropa[e]pyrrolo[1,2-a][1,4]diazacyclopentadecin-6-yl)carbamate], the EC50 in assay [1] (setting [3]) and in assay [2] (setting [4]) was 4.82 to 103 nM each time.

For `CC(C)n1nc(O[C@@H]2C[C@H]3C(=O)N[C@]4(C(=O)NS(=O)(=O)C5(C)CC5)C[C@H]4/C=C\CC[C@H](C)C[C@@H](C)[C@H](NC(=O)OC(C)(C)C(C)(F)F)C(=O)N3C2)c2ccccc2c1=O` [Compound 1015, 3,3-difluoro-2-methylbutan-2-yl((2R,6S,7R,9S,13aS,14aR,16aS,Z)-2-((3-isopropyl-4-oxo-3,4-dihydrophthalazin-1-yl)oxy)-7,9-dimethyl-14a-(((1-methylcyclopropyl)sulfonyl)carbamoyl)-5,16-dioxo-1,2,3,5,6,7,8,9,10,11,13a,14,14a,15,16,16a-hexadecahydrocyclopropa[e]pyrrolo[1,2-a][1,4]diazacyclopentadecin-6-yl)carbamate], the EC50 in assay [1] (setting [3]) and in assay [2] (setting [4]) was above 87.4 nM in each case.

As for `CC(C)n1nc(O[C@@H]2C[C@H]3C(=O)N[C@]4(C(=O)NS(=O)(=O)C5(C)CC5)C[C@H]4/C=C\CC[C@@H](C)C[C@@H](C)[C@H](NC(=O)OC(C)(C)C(C)(F)F)C(=O)N3C2)c2ccccc2c1=O` [Compound 1016, 3,3-difluoro-2-methylbutan-2-yl((2R,6S,7R,9R,13aS,14aR,16aS,Z)-2-((3-isopropyl-4-oxo-3,4-dihydrophthalazin-1-yl)oxy)-7,9-dimethyl-14a-(((1-methylcyclopropyl)sulfonyl)carbamoyl)-5,16-dioxo-1,2,3,5,6,7,8,9,10,11,13a,14,14a,15,16,16a-hexadecahydrocyclopropa[e]pyrrolo[1,2-a][1,4]diazacyclopentadecin-6-yl)carbamate], the EC50 in assay [1] (setting [3]) and in assay [2] (setting [4]) was 4.82 to 103 nM each time.

On to `CC(C)n1nc(O[C@@H]2C[C@H]3C(=O)N[C@]4(C(=O)NS(=O)(=O)C5CC5)C[C@H]4/C=C\CC[C@H](C)C[C@@H](C)[C@H](NC(=O)OC(C)(C)C(C)(F)F)C(=O)N3C2)c2ccccc2c1=O` [Compound 1017, 3,3-difluoro-2-methylbutan-2-yl((2R,6S,7R,9S,13aS,14aR,16aS,Z)-14a-((cyclopropylsulfonyl)carbamoyl)-2-((3-isopropyl-4-oxo-3,4-dihydrophthalazin-1-yl)oxy)-7,9-dimethyl-5,16-dioxo-1,2,3,5,6,7,8,9,10,11,13a,14,14a,15,16,16a-hexadecahydrocyclopropa[e]pyrrolo[1,2-a][1,4]diazacyclopentadecin-6-yl)carbamate], for which the EC50 in assay [1] (setting [3]) and in assay [2] (setting [4]) was above 87.4 nM in each case.

Regarding `CC(C)n1nc(O[C@@H]2C[C@H]3C(=O)N[C@]4(C(=O)NS(=O)(=O)C5CC5)C[C@H]4/C=C\CC[C@@H](C)C[C@@H](C)[C@H](NC(=O)OC(C)(C)C(C)(F)F)C(=O)N3C2)c2ccccc2c1=O` [Compound 1018, 3,3-difluoro-2-methylbutan-2-yl((2R,6S,7R,9R,13aS,14aR,16aS,Z)-14a-((cyclopropylsulfonyl)carbamoyl)-2-((3-isopropyl-4-oxo-3,4-dihydrophthalazin-1-yl)oxy)-7,9-dimethyl-5,16-dioxo-1,2,3,5,6,7,8,9,10,11,13a,14,14a,15,16,16a-hexadecahydrocyclopropa[e]pyrrolo[1,2-a][1,4]diazacyclopentadecin-6-yl)carbamate], the EC50 in assay [1] (setting [3]) and in assay [2] (setting [4]) was 4.82 to 103 nM each time.
